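Values below derive from 48-hour exposures of cells grown in 96-well plates, with endpoints linearly interpolated between the two concentrations bracketing the appropriate inhibition level. TGI denotes the concentration required for complete inhibition of growth.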
Columns and labels:
Experiment in all cases: NCI-60 cell line screen, 48 h
RXF 393 renal = test system: RXF 393 renal
NCI-H522 lung = test system: NCI-H522 lung
SF-268 CNS = test system: SF-268 CNS
IGROV1 ovarian = test system: IGROV1 ovarian
K-562 leukemia = test system: K-562 leukemia
DMS 114 small cell lung = test system: DMS 114 small cell lung
SF-295 CNS = test system: SF-295 CNS
SNB-19 CNS = test system: SNB-19 CNS
HCC-2998 colon = test system: HCC-2998 colon
CAKI-1 renal = test system: CAKI-1 renal
NCI-H226 lung = test system: NCI-H226 lung
KM12 colon = test system: KM12 colon
M19-MEL melanoma = test system: M19-MEL melanoma
XF 498 CNS = test system: XF 498 CNS
CCRF-CEM leukemia = test system: CCRF-CEM leukemia
HOP-62 NSCLC = test system: HOP-62 NSCLC
M14 melanoma = test system: M14 melanoma
DMS 273 small cell lung = test system: DMS 273 small cell lung
NCI-H23 lung = test system: NCI-H23 lung
TK-10 renal = test system: TK-10 renal
LOX IMVI melanoma = test system: LOX IMVI melanoma
ACHN renal = test system: ACHN renal
HOP-92 NSCLC = test system: HOP-92 NSCLC
OVCAR-4 ovarian = test system: OVCAR-4 ovarian
COLO 205 colon = test system: COLO 205 colon
MALME-3M melanoma = test system: MALME-3M melanoma
OVCAR-5 ovarian = test system: OVCAR-5 ovarian
SF-539 CNS = test system: SF-539 CNS
786-0 renal = test system: 786-0 renal
HT29 colon = test system: HT29 colon
SR leukemia = test system: SR leukemia
SNB-78 CNS = test system: SNB-78 CNS
MOLT-4 leukemia = test system: MOLT-4 leukemia
DLD-1 colon = test system: DLD-1 colon
U251 CNS = test system: U251 CNS
SK-OV-3 ovarian = test system: SK-OV-3 ovarian
UO-31 renal = test system: UO-31 renal
EKVX NSCLC = test system: EKVX NSCLC
SNB-75 CNS = test system: SNB-75 CNS
SW-620 colon = test system: SW-620 colon
OVCAR-8 ovarian = test system: OVCAR-8 ovarian
LXFL 529 NSCLC = test system: LXFL 529 NSCLC
SK-MEL-28 melanoma = test system: SK-MEL-28 melanoma
SK-MEL-5 melanoma = test system: SK-MEL-5 melanoma
OVCAR-3 ovarian = test system: OVCAR-3 ovarian
UACC-62 melanoma = test system: UACC-62 melanoma
HCT-15 colon = test system: HCT-15 colon
NCI-H460 lung = test system: NCI-H460 lung
A549 NSCLC = test system: A549 NSCLC
SK-MEL-2 melanoma = test system: SK-MEL-2 melanoma
HCT-116 colon = test system: HCT-116 colon
SN12C renal = test system: SN12C renal

Measured: TGI

CCCN1C(=O)C/C(=C\C(C)=O)Nc2ccccc21
> 100 µM: RXF 393 renal | NCI-H522 lung | SF-268 CNS | IGROV1 ovarian | K-562 leukemia | DMS 114 small cell lung | SF-295 CNS | SNB-19 CNS | HCC-2998 colon | CAKI-1 renal | NCI-H226 lung | KM12 colon | M19-MEL melanoma | XF 498 CNS | CCRF-CEM leukemia | HOP-62 NSCLC | M14 melanoma | DMS 273 small cell lung | NCI-H23 lung | TK-10 renal | LOX IMVI melanoma | ACHN renal | HOP-92 NSCLC | OVCAR-4 ovarian | COLO 205 colon | MALME-3M melanoma | OVCAR-5 ovarian | SF-539 CNS | 786-0 renal | HT29 colon | SR leukemia | SNB-78 CNS | MOLT-4 leukemia | DLD-1 colon | U251 CNS | SK-OV-3 ovarian | UO-31 renal | EKVX NSCLC | SNB-75 CNS | SW-620 colon | OVCAR-8 ovarian | LXFL 529 NSCLC | SK-MEL-28 melanoma | SK-MEL-5 melanoma | OVCAR-3 ovarian | UACC-62 melanoma | HCT-15 colon | NCI-H460 lung | A549 NSCLC | SK-MEL-2 melanoma | HCT-116 colon | SN12C renal

From PubChem BioAssay (NCI)
